Assay [1] concerns the target T1, CB1 receptor (Homo sapiens, UniProt P21554).
T1 construct: host or cells: cell membrane preparations
Put plainly: [3H]CP-55,940 radioligand competition binding, CB1. On the technique in general: Displacement assays read how much labelled ligand stays bound in the presence of the test substance.
Description: (§1) Briefly, the bioassay is carried out using the Perkin Elmer 96-well Top Counter. […] The procedure is as follows.
(§2) In competition binding experiments, the tested compound dilutions are carried out in duplicate in TME buffer (25 mM Tris, 5 mM MgCl2, 1 mM EDTA) containing 0.1% (w/v) fatty acid free bovine serum albumin (BSA), pH 7.4. […] TME buffer and cell membrane preparations expressing CB receptors (5 μg per well) are added to a final volume of 200 μL. […] After the binding suspensions are incubated at 30° C. for 1 hr, the reaction is terminated by rapid filtration through microfiltration plates (Unifilter GF/B filterplate, PerkinElmer), followed by 5 washes with ice cold TME buffer containing 0.1% BSA on a Packard Filtermate Harvester (PerkinElmer). The plates are then dried overnight and 30 μl MicroScint 0 scintillation cocktail is added to each well of the dried filter plates. The bound radioactivity is then counted using a Perkin Elmer 96-well TopCounter. […] This assay is used for determination of the binding affinity parameters (Ki) of ligand-receptor interactions for the CB receptor.

Assay [2] concerns the target CB2 receptor (Homo sapiens, UniProt P34972). The experiment in a line: [3H]CP-55,940 radioligand competition binding, CB2. Conditions: for SI: selectivity index for CB2: Ki(CB1)/Ki(CB2) ratio. Details: host or cells: cell membrane preparations.
Description: as §1, §2
Where [3] appears, read: [3H]CP-55,940 displacement, read-out: Ki (CB1).
The mark [4] stands for this setting: [3H]CP-55,940 displacement, read-out: Ki (CB2).

Each structure is given as a SMILES string. Where two headings read alike, the source gives them in different places.

What is called Ki is a measure of affinity in units of concentration, obtained from inhibition or displacement.

T1 sequence (P21554 whole entry): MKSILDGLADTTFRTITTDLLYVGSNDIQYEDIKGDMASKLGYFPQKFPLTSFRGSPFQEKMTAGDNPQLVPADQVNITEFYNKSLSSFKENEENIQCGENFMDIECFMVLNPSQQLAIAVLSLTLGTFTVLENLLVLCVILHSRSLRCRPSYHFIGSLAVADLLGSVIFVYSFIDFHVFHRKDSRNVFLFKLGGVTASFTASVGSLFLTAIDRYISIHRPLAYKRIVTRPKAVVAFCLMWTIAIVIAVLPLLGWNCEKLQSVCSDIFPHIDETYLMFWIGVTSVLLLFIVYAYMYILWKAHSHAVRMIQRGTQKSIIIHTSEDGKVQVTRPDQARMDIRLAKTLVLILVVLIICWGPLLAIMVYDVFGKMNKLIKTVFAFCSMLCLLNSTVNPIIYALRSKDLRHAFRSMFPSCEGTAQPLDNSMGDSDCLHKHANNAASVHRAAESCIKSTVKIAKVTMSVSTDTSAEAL
Chain of CB2 receptor (P34972 whole entry): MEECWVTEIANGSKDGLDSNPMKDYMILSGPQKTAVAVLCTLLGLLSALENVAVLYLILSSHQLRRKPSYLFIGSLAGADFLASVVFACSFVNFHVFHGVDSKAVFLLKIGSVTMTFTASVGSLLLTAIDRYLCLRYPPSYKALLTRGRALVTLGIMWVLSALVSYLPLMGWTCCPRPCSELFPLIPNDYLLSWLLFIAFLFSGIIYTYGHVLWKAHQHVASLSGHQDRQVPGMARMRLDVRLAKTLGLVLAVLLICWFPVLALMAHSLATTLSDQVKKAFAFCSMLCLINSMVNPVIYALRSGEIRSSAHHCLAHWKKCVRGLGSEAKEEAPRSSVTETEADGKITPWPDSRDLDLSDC

Consider `O=C(Cc1ccccc1)NC(CCc1ccccc1)NC(=O)Cc1ccccc1` [Compound 45, N,N′-(3-Phenylpropane-1,1-diyl)bis(2-phenylacetamide)], for which the results for the Ki in assay [1] (setting [3]) and in assay [2] (setting [4]) were above 20000 nM and 9320 nM, respectively. `CCN(CC)c1ccc(CN(C(=O)C2CCCCC2)c2ccc(C)cc2)cc1` [Compound 99, N-(4-(Diethylamino)benzyl)-N-(p-tolyl)cyclohexanecarboxamide]: the results for the Ki in assay [1] (setting [3]) and in assay [2] (setting [4]) were 202 nM and 222 nM, respectively. The “SI: selectivity index for CB2” value in assay [2] is given as 0.9.

Regarding `CCN(CC)c1ccc(CN(c2ccc(C)cc2)S(=O)(=O)c2ccccc2)cc1` [Compound 90, N-(4-(Diethylamino)benzyl)-N-(p-tolyl)benzenesulfonamide], the values for the Ki in assay [1] (setting [3]) and in assay [2] (setting [4]) were 514 nM and 3.4 nM, respectively. Also, the “SI: selectivity index for CB2” value in assay [2] is listed as 151. As for `CCN(CC)c1ccc(CN(C(=O)Cc2ccccc2)c2ccc(C)cc2)cc1` [Compound 97, N-(4-(Diethylamino)benzyl)-2-phenyl-N-(p-tolyl)acetamide], the Ki in assay [1] (setting [3]) is above 20000 nM; in assay [2] (setting [4]), 72 nM. The “SI: selectivity index for CB2” value in assay [2] was above 277.

For `CCN(CC)c1ccc(CN(c2ccc(C)cc2)S(=O)(=O)c2ccc(F)cc2)cc1` [Compound 91, N-(4-(Diethylamino)benzyl)-4-fluoro-N-(p-tolyl)benzenesulfonamide], the Ki in assay [1] (setting [3]) was 858 nM; in assay [2] (setting [4]), 5.6 nM. Besides, the “SI: selectivity index for CB2” value in assay [2] came out at 153. As for `CCN(CC)c1ccc(CN(C(=O)C2CCCCC2)C23CC4CC(CC(C4)C2)C3)cc1` [Compound 63, N-((3s,5s,7s)-Adamantan-1-yl)-N-(4-(diethylamino)benzyl)cyclohexanecarboxamide], the Ki in assay [1] (setting [3]) is above 20000 nM. Besides, in assay [2], the inhibition constant Ki worked out at 35 nM and the “SI: selectivity index for CB2” value is given as above 571. As to `CCN(CC)c1ccc(CN(C(=O)Cc2ccccc2)C23CC4CC(CC(C4)C2)C3)cc1` [Compound 66, N-((3s,5s,7s)-Adamantan-1-yl)-N-(4-(diethylamino)benzyl)-2-phenylacetamide], the inhibition constant (Ki) in assay [1] (setting [3]) was above 20000 nM; in assay [2] (setting [4]), 60 nM. In assay [2], the “SI: selectivity index for CB2” value was above 333. `CCN(CC)c1ccc(CN(c2ccc(Cl)cc2)S(=O)(=O)c2ccc(Cl)cc2)cc1` [Compound 83, 4-Chloro-N-(4-chlorophenyl)-N-(4-(diethylamino)benzyl)benzenesulfonamide]: the results for the inhibition constant (Ki) in assay [1] (setting [3]) and in assay [2] (setting [4]) were 6620 nM and 36 nM, respectively. Besides, the “SI: selectivity index for CB2” value in assay [2] was determined as 183. For the molecule `CCN(CC)c1ccc(CN(C(=O)Cc2ccc(Cl)cc2)C23CC4CC(CC(C4)C2)C3)cc1` [Compound 65, N-((3s,5s,7s)-Adamantan-1-yl)-2-(4-chlorophenyl)-N-(4-(diethylamino)benzyl)acetamide], the inhibition constant Ki in assay [1] (setting [3]) was above 20000 nM. Consider `CCN(CC)c1ccc(CN(C23CC4CC(CC(C4)C2)C3)S(=O)(=O)c2ccc(C)cc2)cc1` [Compound 60, N-((3s,5s,7s)-Adamantan-1-yl)-N-(4-(diethylamino)benzyl)-4-methylbenzenesulfonamide], for which, in assay [1] (setting [3]), the Ki was above 20000 nM. With `CCN(CC)c1ccc(CN(C(=O)Cc2ccc(Cl)cc2)c2ccc(C)cc2)cc1` [Compound 98, 2-(4-Chlorophenyl)-N-(4-(diethylamino)benzyl)-N-(p-tolyl)acetamide], the Ki in assay [1] (setting [3]) was determined as 3200 nM; in assay [2] (setting [4]), 107 nM. The “SI: selectivity index for CB2” value in assay [2] was found to be 29. With `CCN(CC)c1ccc(CN(c2ccc(Cl)cc2)S(=O)(=O)c2ccc(F)cc2)cc1` [Compound 82, N-(4-Chlorophenyl)-N-(4-(diethylamino)benzyl)-4-fluorobenzenesulfonamide], the figures for the Ki in assay [1] (setting [3]) and in assay [2] (setting [4]) were 1130 nM and 73 nM, respectively. Also, the “SI: selectivity index for CB2” value in assay [2] is 15.

With `CCN(CC)c1ccc(CN(C23CC4CC(CC(C4)C2)C3)S(=O)(=O)c2ccccc2)cc1` [Compound 56, N-((3s,5s,7s)-Adamantan-1-yl)-N-(4-(diethylamino)benzyl)benzenesulfonamide], the values for the Ki in assay [1] and in assay [2] were 11000 nM and 84 nM, respectively.

Turning to `CCN(CC)c1ccc(CN(c2ccc(Cl)cc2)S(=O)(=O)c2ccccc2)cc1` [Compound 81, N-(4-Chlorophenyl)-N-(4-(diethylamino)benzyl)benzenesulfonamide], the inhibition constant Ki in assay [1] (setting [3]) came out at 1770 nM. As for `CCN(CC)c1ccc(CN(c2ccc(C)cc2)S(=O)(=O)c2ccc(C(C)C)cc2)cc1` [Compound 96, N-(4-(Diethylamino)benzyl)-4-isopropyl-N-(p-tolyl)benzenesulfonamide], the Ki is 3360 nM in assay [1] (setting [3]) and 4.3 nM in assay [2] (setting [4]). For the same molecule, the “SI: selectivity index for CB2” value in assay [2] is on record as 782. Turning to `O=C(Cc1ccccc1)NC(Cc1ccccc1)NC(=O)Cc1ccccc1` [Compound 44, N,N′-(2-Phenylethane-1,1-diyl)bis(2-phenylacetamide)], in assay [1] (setting [3]), the Ki is above 20000 nM. Consider `CCN(CC)c1ccc(CN(C(=O)C2CCCCC2)c2ccc(Cl)cc2)cc1` [Compound 89, N-(4-Chlorophenyl)-N-(4-(diethylamino)benzyl)cyclohexanecarboxamide], for which the inhibition constant (Ki) in assay [1] (setting [3]) is above 20000 nM; in assay [2] (setting [4]), 164 nM. Also, in assay [2], the “SI: selectivity index for CB2” value was 121. For the molecule `Cc1ccc(C(NC(=O)Cc2ccccc2)NC(=O)Cc2ccccc2)cc1` [Compound 8, N,N′-(p-tolylmethylene)bis(2-phenylacetamide)], the inhibition constant Ki was 109 nM in assay [1] (setting [3]) and 494 nM in assay [2] (setting [4]).

`CCN(CC)c1ccc(C(NC(=O)C(C)(C)C)NC(=O)C(C)(C)C)cc1` [Compound 51, N,N′-((4-(diethylamino)phenyl)methylene)bis(2,2-dimethylpropanamide)]: the Ki in assay [1] (setting [3]) was above 20000 nM; in assay [2] (setting [4]), 3550 nM. As to `O=C(Cc1ccc(Cl)cc1)NC(NC(=O)Cc1ccc(Cl)cc1)c1ccccc1C(F)(F)F` [Compound 27, N,N′-((2-(trifluoromethyl)phenyl)methylene)bis(2-(4-chlorophenyl)acetamide)], the “SI: selectivity index for CB2” value in assay [2] was above 127. Besides, the Ki in assay [2] (setting [4]) worked out at 158 nM.

With `CCN(CC)c1ccc(CN(c2ccc(C)cc2)S(=O)(=O)c2ccc(Cl)cc2)cc1` [Compound 92, 4-Chloro-N-(4-(diethylamino)benzyl)-N-(p-tolyl)benzenesulfonamide], the values for the Ki in assay [1] (setting [3]) and in assay [2] (setting [4]) were 412 nM and 3 nM, respectively. For `CCCCN(CCCC)c1ccc(C(NC(=O)Cc2ccccc2)NC(=O)Cc2ccccc2)cc1` [Compound 18, N,N′-((4-(dibutylamino)phenyl)methylene)bis(2-phenylacetamide)], in assay [2], the “SI: selectivity index for CB2” value was above 90. Further, the Ki in assay [2] (setting [4]) worked out at 221 nM. As to `O=C(Cc1ccccc1)NC(NC(=O)Cc1ccccc1)c1ccc(C(F)(F)F)cc1` [Compound 14, N,N′-((4-(trifluoromethyl)phenyl)methylene)bis(2-phenylacetamide)], the “SI: selectivity index for CB2” value in assay [2] is above 34. Further, in assay [2] (setting [4]), the Ki was 596 nM. With `O=C(Cc1ccccc1)NC(/C=C/c1ccccc1)NC(=O)Cc1ccccc1` [Compound 46, (E)-N,N′-(3-Phenylprop-2-ene-1,1-diyl)bis(2-phenylacetamide)], the Ki in assay [1] (setting [3]) was above 20000 nM.

Take `CCN(CC)c1ccc(CN(c2ccc(C)cc2)S(=O)(=O)c2cccc(C)c2)cc1` [Compound 95, N-(4-(Diethylamino)benzyl)-3-methyl-N-(p-tolyl)benzenesulfonamide]: the values for the Ki in assay [1] (setting [3]) and in assay [2] (setting [4]) were 218 nM and 5.8 nM, respectively. Besides, the “SI: selectivity index for CB2” value in assay [2] was found to be 37. `O=C(Cc1ccc(C(F)(F)F)cc1)NC(NC(=O)Cc1ccc(C(F)(F)F)cc1)c1ccc(F)cc1` [Compound 32, N,N′-((4-fluorophenyl)methylene)bis(2-(4-(trifluoromethyl)phenyl)acetamide)]: the Ki in assay [2] (setting [4]) is above 20000 nM.

As to `CCCCCCCN(Cc1ccc(N(CC)CC)cc1)C(=O)C1CCCCC1` [Compound 79, N-(4-(Diethylamino)benzyl)-N-heptylcyclohexanecarboxamide], in assay [2] (setting [4]), the inhibitory constant (Ki) was found to be 212 nM. Still for that read-out and setting: the value for `O=C(Cc1ccc(C(F)(F)F)cc1)NC(NC(=O)Cc1ccc(C(F)(F)F)cc1)c1ccccc1` [Compound 30, N,N′-(phenylmethylene)bis(2-(4-(trifluoromethyl)phenyl)acetamide)] was above 20000 nM.

On to `O=C(Cc1ccc(Cl)cc1)NC(NC(=O)Cc1ccc(Cl)cc1)c1ccc(C(F)(F)F)cc1` [Compound 28, N,N′-((4-(trifluoromethyl)phenyl)methylene)bis(2-(4-chlorophenyl)acetamide)], for which, in assay [2], the “SI: selectivity index for CB2” value is on record as above 198. Further, the Ki in assay [2] (setting [4]) amounted to 101 nM. In the case of `CCN(CC)c1ccc(CN(C23CC4CC(CC(C4)C2)C3)S(=O)(=O)c2ccc(OC)cc2)cc1` [Compound 59, N-(3r)-Adamantan-1-yl)-N-(4-(diethylamino)benzyl)-4-methoxybenzenesulfonamide], the Ki in assay [2] (setting [4]) was 137 nM.

As for `O=C(Cc1ccccc1)NC(Cc1ccccc1)NC(=O)Cc1ccccc1` [Compound 37, N,N′-(2-phenylethane-1,1-diyl)bis(2-phenylacetamide)], the Ki in assay [2] (setting [4]) was above 20000 nM.

For the molecule `O=C(Cc1ccccc1)NC(NC(=O)Cc1ccccc1)c1cccc(F)c1` [Compound 4, N,N′-((3-fluorophenyl)methylene)bis(2-phenylacetamide)], the Ki in assay [2] (setting [4]) is 12700 nM.

As to `O=C(Cc1ccccc1)NC(/C=C/c1ccccc1)NC(=O)Cc1ccccc1` [Compound 39, (E)-N,N′-(3-phenylprop-2-ene-1,1-diyl)bis(2-phenylacetamide)], the Ki in assay [2] (setting [4]) amounted to 5680 nM. In the case of `Cc1ccc(C(NC(=O)Cc2ccc(Cl)cc2)NC(=O)Cc2ccc(Cl)cc2)cc1` [Compound 25, N,N′-(p-tolylmethylene)bis(2-(4-chlorophenyl)acetamide)], the “SI: selectivity index for CB2” value in assay [2] is above 43. Further, the Ki in assay [2] (setting [4]) worked out at 462 nM. For the molecule `CCN(CC)c1ccc(C(NC(=O)c2ccccc2)NC(=O)c2ccccc2)cc1` [Compound 49, N,N′-((4-(Diethylamino)phenyl)methylene)dibenzamide], the “SI: selectivity index for CB2” value in assay [2] is recorded as above 29. The Ki in assay [2] (setting [4]) was determined as 688 nM. Turning to `O=C(Cc1ccccc1)NC(NC(=O)Cc1ccccc1)c1ccccc1` [Compound 2, N,N′-(phenylmethylene)bis(2-phenylacetamide)], the Ki in assay [2] (setting [4]) turned out to be 9930 nM.
